Experimental data as given in ChEMBL document CHEMBL4308846, “How Selective Are Pharmacological Inhibitors of Cell-Cycle-Regulating Cyclin-Dependent Kinases?” (J Med Chem, 2018).
Calls of active or inactive are those of the source. No cut-off for these calls is given here.

What was measured:
[1] = test system: HCT-116; assay: Induction of cell cycle arrest in human HCT116 cells assessed as reduction in accumulation at G1 phase at 0.5 to 5.9 uM after 24 hrs by propidium iodide-staining based flow cytometry; format: functional; parameters: scale not given: the % may be the effect or the level left
[2] = molecular target: Cyclin-dependent kinase 4 (Homo sapiens) (UniProt P11802); assay: Inhibition of CDK4 (unknown origin) at 10 uM
[3] = molecular target: Cyclin-dependent kinase 6 (Homo sapiens) (UniProt Q00534); assay: Inhibition of CDK6 (unknown origin) at 10 uM
[4] = molecular target: CDK2/Cyclin A2 (Homo sapiens, UniProt P24941)
[5] = molecular target: Cyclin-dependent kinase 1/cyclin B1 (Homo sapiens, UniProt P06493); assay: biochemical
Sequence of Cyclin-dependent kinase 1/cyclin B1 (P06493 whole entry): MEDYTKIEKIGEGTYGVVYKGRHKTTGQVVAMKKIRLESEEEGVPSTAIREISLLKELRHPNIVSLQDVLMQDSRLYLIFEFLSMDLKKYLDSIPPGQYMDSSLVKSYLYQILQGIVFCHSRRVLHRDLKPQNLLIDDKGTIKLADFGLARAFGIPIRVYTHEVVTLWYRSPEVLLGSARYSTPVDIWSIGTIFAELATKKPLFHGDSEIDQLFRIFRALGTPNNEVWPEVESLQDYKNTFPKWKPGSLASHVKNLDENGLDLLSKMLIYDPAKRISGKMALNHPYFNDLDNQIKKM
Sequence of Cyclin-dependent kinase 1/cyclin B1 (P14635 whole entry, further chain): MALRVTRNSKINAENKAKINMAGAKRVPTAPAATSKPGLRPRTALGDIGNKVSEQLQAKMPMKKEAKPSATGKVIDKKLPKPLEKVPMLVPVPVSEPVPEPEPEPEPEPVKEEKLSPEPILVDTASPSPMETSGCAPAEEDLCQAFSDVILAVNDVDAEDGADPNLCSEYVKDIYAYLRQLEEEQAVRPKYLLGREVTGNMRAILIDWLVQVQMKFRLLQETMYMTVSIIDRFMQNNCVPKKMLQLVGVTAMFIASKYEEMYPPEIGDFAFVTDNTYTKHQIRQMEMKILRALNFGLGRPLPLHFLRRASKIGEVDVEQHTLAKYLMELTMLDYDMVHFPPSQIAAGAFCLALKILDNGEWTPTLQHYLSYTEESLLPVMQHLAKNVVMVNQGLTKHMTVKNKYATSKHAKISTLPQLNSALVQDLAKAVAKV

[6] = molecular target: Cyclin-dependent kinase 2/cyclin E1 (Homo sapiens, UniProt P24941); assay: biochemical
[7] = molecular target: Cyclin-dependent kinase 4/cyclin D1 (Homo sapiens, UniProt P11802); assay: biochemical
Sequence of Cyclin-dependent kinase 4/cyclin D1 (P11802 whole entry): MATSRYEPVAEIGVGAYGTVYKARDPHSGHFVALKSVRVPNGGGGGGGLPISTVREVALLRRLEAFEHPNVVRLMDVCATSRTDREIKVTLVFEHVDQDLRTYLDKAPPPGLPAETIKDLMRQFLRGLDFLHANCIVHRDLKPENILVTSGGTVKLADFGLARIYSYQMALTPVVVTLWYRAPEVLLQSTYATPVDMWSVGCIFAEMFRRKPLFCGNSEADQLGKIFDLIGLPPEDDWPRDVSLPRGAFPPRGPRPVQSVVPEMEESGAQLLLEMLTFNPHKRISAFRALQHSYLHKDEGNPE
Sequence of Cyclin-dependent kinase 4/cyclin D1 (P24385 whole entry, further chain): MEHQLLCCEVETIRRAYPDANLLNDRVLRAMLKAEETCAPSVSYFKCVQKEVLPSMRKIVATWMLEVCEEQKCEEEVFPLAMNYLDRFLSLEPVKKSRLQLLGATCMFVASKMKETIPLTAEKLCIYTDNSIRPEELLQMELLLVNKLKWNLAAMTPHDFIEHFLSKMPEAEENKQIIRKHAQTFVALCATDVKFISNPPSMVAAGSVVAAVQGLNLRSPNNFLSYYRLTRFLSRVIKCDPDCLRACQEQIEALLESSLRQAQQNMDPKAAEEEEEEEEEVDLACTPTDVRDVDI

[8] = molecular target: Cyclin-dependent kinase 5/CDK5 activator 1 (Homo sapiens, UniProt Q00535); assay: biochemical
Sequence of Cyclin-dependent kinase 5/CDK5 activator 1 (Q00535 whole entry): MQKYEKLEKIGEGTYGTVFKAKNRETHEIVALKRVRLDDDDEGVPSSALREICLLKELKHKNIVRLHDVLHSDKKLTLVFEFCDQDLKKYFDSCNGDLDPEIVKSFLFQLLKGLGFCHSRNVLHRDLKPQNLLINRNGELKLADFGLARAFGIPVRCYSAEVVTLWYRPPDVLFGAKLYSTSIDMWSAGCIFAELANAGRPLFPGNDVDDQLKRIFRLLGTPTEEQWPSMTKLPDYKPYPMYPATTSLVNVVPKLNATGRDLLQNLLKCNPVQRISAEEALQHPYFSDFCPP
Sequence of Cyclin-dependent kinase 5/CDK5 activator 1 (Q15078 whole entry, further chain): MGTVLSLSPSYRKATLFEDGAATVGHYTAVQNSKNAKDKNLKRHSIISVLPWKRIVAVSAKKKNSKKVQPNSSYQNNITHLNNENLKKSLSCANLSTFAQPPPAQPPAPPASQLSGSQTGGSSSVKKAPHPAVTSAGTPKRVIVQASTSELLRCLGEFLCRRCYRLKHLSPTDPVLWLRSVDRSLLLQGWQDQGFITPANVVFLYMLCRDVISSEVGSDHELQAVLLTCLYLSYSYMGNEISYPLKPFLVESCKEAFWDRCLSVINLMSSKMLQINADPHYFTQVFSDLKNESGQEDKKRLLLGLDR

[9] = molecular target: CDK7/Cyclin H/MNAT1 (Homo sapiens, UniProt P50613); assay: biochemical
Sequence of CDK7/Cyclin H/MNAT1 (P51946 whole entry): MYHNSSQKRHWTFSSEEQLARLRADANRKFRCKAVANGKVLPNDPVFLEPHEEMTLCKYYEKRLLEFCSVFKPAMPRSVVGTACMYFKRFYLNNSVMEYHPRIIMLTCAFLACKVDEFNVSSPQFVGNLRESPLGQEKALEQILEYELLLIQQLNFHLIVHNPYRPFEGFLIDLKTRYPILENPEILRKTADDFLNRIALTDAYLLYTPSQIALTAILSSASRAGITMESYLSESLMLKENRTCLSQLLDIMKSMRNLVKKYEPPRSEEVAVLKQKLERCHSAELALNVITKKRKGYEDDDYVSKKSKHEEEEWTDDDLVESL
Sequence of CDK7/Cyclin H/MNAT1 (P50613 whole entry): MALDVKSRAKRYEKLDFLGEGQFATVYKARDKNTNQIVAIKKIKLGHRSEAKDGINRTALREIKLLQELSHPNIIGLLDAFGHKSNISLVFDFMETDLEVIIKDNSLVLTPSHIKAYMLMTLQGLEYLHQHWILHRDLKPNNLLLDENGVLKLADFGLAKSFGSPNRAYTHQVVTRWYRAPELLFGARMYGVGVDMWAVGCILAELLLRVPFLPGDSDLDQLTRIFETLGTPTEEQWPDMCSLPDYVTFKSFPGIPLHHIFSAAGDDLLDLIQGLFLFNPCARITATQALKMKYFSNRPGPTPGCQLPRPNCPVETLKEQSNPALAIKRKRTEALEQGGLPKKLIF
Sequence of CDK7/Cyclin H/MNAT1 (P51948 whole entry, further chain): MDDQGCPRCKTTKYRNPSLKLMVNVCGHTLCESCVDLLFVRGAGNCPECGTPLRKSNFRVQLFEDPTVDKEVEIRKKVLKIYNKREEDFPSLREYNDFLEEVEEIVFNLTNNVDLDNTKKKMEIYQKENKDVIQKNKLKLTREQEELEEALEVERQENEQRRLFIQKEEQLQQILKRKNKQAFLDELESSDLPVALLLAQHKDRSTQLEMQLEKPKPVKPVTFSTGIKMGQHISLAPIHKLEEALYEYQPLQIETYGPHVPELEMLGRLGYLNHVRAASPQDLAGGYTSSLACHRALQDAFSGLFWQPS

[10] = molecular target: CDK9/cyclin T1 (Homo sapiens, UniProt P50750); assay: biochemical
Sequence of CDK9/cyclin T1 (O60563 whole entry): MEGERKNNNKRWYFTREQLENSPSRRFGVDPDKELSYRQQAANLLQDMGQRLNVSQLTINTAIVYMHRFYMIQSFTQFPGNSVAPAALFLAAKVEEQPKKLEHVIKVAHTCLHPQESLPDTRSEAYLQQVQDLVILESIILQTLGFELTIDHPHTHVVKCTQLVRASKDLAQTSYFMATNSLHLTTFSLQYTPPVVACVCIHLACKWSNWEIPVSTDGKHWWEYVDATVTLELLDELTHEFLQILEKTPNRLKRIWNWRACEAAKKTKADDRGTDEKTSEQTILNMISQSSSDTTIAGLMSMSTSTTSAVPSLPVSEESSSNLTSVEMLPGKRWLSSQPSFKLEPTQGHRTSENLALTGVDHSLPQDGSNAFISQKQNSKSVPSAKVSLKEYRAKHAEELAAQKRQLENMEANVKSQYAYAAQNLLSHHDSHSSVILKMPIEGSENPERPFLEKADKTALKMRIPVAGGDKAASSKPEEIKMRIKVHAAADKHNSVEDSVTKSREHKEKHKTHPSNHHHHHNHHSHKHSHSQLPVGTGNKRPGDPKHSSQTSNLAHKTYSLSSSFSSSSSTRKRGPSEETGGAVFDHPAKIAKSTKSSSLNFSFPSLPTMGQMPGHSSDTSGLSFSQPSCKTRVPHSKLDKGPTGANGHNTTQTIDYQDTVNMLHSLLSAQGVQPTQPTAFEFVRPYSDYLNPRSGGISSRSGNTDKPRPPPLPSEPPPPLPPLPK
Sequence of CDK9/cyclin T1 (P50750 whole entry): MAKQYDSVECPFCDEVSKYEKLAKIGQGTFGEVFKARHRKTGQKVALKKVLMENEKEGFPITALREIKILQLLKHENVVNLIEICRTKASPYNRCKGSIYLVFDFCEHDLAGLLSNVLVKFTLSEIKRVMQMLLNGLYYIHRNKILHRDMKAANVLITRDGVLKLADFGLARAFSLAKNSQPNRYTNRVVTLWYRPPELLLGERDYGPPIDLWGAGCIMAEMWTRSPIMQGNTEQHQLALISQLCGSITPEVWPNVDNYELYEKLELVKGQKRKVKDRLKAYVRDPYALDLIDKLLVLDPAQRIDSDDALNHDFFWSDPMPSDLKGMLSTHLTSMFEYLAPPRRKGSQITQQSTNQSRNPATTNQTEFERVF

[11] = test system: HCT-116; assay: Induction of cell cycle arrest in human HCT116 cells assessed as accumulation at G2/M phase after 24 hrs by propidium iodide-staining based flow cytometry; format: functional
[12] = test system: HCT-116; assay: Induction of cell cycle arrest in human HCT116 cells at 19.8 to 100 uM after 24 hrs by propidium iodide-staining based flow cytometry relative to control; format: functional
[13] = test system: HCT-116; assay: Induction of cell cycle arrest in human HCT116 cells assessed as accumulation at G2/M phase at 3.9 to 19.8 uM after 24 hrs by propidium iodide-staining based flow cytometry relative to control; format: functional
[14] = molecular target: Cyclin-dependent kinase 9 (Homo sapiens) (UniProt P50750); assay: Inhibition of CDK9 in human HCT116 cells assessed as induction of dephosphorylation of RNA polymerase 2 S2/S5 residues at 250 to 500 nM after 24 hrs by Western blot analysis; format: cell-based
[15] = test system: HCT-116; assay: Induction of cell cycle arrest in CDK2 knocked out human HCT116 cells assessed as accumulation at G2/M phase at 5 to 20 uM after 24 hrs by propidium iodide-staining based flow cytometry; format: functional
[16] = test system: HCT-116; assay: Induction of cell cycle arrest in human HCT116 cells assessed as accumulation at G2/M phase at 5 to 20 uM after 24 hrs by propidium iodide-staining based flow cytometry; format: functional
[17] = test system: HCT-116; assay: Induction of cell cycle arrest in human HCT116 cells assessed as accumulation at G2/M phase at 19.8 to 100 uM after 24 hrs by propidium iodide-staining based flow cytometry relative to control; format: functional
[18] = test system: HCT-116; assay: Induction of cell cycle arrest in human HCT116 cells assessed as reduction in accumulation at G1 phase at 1.7 to 19.8 uM after 24 hrs by propidium iodide-staining based flow cytometry; format: functional
[19] = test system: HCT-116; assay: Induction of cell cycle arrest in human HCT116 cells assessed as accumulation at G2/M phase at 1.7 to 19.8 uM after 24 hrs by propidium iodide-staining based flow cytometry; format: functional
[20] = test system: HCT-116; assay: Induction of cell cycle arrest in human HCT116 cells assessed as reduction in accumulation at G1 phase at 8.8 to 100 uM after 24 hrs by propidium iodide-staining based flow cytometry; format: functional; parameters: scale not given: the % may be the effect or the level left
[21] = test system: HCT-116; assay: Induction of cell cycle arrest in CDK2 knocked out human HCT116 cells assessed as accumulation at G2/M phase at 100 to 500 nM after 24 hrs by propidium iodide-staining based flow cytometry; format: functional
[22] = test system: HCT-116; assay: Induction of cell cycle arrest in CDK2 knocked out human HCT116 cells assessed as accumulation at G2/M phase at 0.8 to 5.9 after 24 hrs by propidium iodide-staining based flow cytometry; format: functional
[23] = test system: HCT-116; assay: Induction of cell cycle arrest in CDK2 knocked out human HCT116 cells assessed as accumulation at G2/M phase at 0.5 to 3.9 after 24 hrs by propidium iodide-staining based flow cytometry; format: functional
[24] = molecular target: Cyclin-dependent kinase 5/CDK5 activator 1 (Homo sapiens) (UniProt Q00535+Q15078); assay: Inhibition of CDK5/p25 in human HCT116 cells assessed as induction of dephosphorylation of FAK at Ser732 residue at 10 to 50 uM after 24 hrs by Western blot analysis; format: cell-based
Sequence of Cyclin-dependent kinase 5/CDK5 activator 1 (Homo sapiens) (Q00535 whole entry): as the sequence (Q00535 whole entry) above
Sequence of Cyclin-dependent kinase 5/CDK5 activator 1 (Homo sapiens) (Q15078 99-307 partner limits assumed): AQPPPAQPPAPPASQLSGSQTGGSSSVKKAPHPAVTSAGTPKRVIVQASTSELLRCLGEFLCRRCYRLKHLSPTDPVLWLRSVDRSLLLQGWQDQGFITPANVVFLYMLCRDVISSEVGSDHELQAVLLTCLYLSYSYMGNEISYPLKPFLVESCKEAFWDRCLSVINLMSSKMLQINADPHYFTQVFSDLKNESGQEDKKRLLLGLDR

[25] = test system: HCT-116; assay: Induction of cell cycle arrest in CDK2 knocked out human HCT116 cells assessed as accumulation at G2/M phase at 13.2 to […] after 24 hrs by propidium iodide-staining based flow cytometry; format: functional
[26] = test system: HCT-116; assay: Induction of cell cycle arrest in human HCT116 cells assessed as reduction in accumulation at G1 phase 19.8 to 100 uM after 24 hrs by propidium iodide-staining based flow cytometry; format: functional
[27] = test system: HCT-116; assay: Induction of cell cycle arrest in human HCT116 cells assessed as accumulation at G2/M phase at 2.6 to 19.8 uM after 24 hrs by propidium iodide-staining based flow cytometry relative to control; format: functional
[28] = molecular target: T1, Aurora kinase A (Homo sapiens, UniProt O14965); assay: Inhibition of GST-tagged AURORA A (unknown origin) expressed in baculovirus infected Sf9 cells using MBP as substrate
T1 sequence (O14965 whole entry): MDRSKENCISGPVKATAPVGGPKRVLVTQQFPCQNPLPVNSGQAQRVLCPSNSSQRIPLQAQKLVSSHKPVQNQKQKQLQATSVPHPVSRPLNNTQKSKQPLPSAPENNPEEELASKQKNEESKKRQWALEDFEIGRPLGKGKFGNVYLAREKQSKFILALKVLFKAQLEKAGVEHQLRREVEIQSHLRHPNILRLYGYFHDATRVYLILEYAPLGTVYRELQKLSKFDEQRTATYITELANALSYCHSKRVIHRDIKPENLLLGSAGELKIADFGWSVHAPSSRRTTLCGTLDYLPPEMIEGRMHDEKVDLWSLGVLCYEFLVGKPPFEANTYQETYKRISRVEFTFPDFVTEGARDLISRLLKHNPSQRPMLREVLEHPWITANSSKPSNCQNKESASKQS

[29] = molecular target: Aurora kinase B (Homo sapiens, UniProt Q96GD4); assay: biochemical
Sequence of Aurora kinase B (Q96GD4 whole entry): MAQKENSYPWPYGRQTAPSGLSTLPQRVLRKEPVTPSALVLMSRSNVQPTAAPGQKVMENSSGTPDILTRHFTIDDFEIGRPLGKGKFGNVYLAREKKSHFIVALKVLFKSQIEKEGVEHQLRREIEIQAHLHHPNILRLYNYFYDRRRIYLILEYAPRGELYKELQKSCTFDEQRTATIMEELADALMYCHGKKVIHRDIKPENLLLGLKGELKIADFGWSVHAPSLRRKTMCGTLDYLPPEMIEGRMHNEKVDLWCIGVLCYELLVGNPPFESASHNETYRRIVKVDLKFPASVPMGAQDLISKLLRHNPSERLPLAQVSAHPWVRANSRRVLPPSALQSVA

[30] = test system: HCT-116; assay: Induction of cell cycle arrest in human HCT116 cells assessed as reduction in accumulation at G1 phase at 0.15 to […] after 24 hrs by propidium iodide-staining based flow cytometry; format: functional
[31] = test system: HCT-116; assay: Induction of cell cycle arrest in human HCT116 cells assessed as accumulation at G2/M phase at 0.15 to […] after 24 hrs by propidium iodide-staining based flow cytometry relative to control; format: functional

Structure (SMILES)	IC50 [4] [µM]	IC50 [5] [µM]	IC50 [6] [µM]	IC50 [7] [µM]	IC50 [8] [µM]	IC50 [9] [µM]	IC50 [10] [µM]	other results
CCCOc1cnc(CN/C=C2\C(=O)NC(=O)c3ccc(I)cc32)cc1O	0.071	0.29	0.501	0.038	1.2	> 20	1	Activity [1]: <=30%; inhibition [2]: Active; inhibition [3]: Active
CNC(=O)c1nn(C)c2c1C(C)(C)Cc1cnc(Nc3ccc(N4CCN(C)CC4)cc3)nc1-2 [MILCICLIB]	0.109	1.2	0.59	–	–	–	–	Activity [11]: 30 - 60%
COc1ccc(CNc2nc(N(CCO)CCO)nc3c2ncn3C(C)C)cc1	–	3.7	–	> 20	0.419	9.2	2.3	Activity [11]: <=30%
Nc1n[nH]c2nc3ccccc3nc12 [QUINOXALINE1]	0.01	9.7	5.6	> 20	13.7	> 20	14.1	Activity [12]: inactive
O=C1Nc2ccc3ncsc3c2/C1=C/Nc1ccc(S(=O)(=O)Nc2ccccn2)cc1	–	0.049	–	0.139	0.007	0.317	–	Activity [11]: 30 - 60%
CCn1cnc2c(Nc3cccc(Cl)c3)nc(N[C@@H]3CCCC[C@@H]3N)nc21	0.046	0.147	0.026	3	0.026	0.279	1.4	Activity [13]: <=30%
Nc1cc(Nc2ccc(S(N)(=O)=O)cc2)ncn1	0.946	5.3	1.9	> 20	4.4	> 20	> 20	Activity [14]: inactive
COc1ccc2c(c1)/C(=C/c1cnc[nH]1)C(=O)N2 [SU-9516]	–	–	–	–	–	–	–	Activity [11]: 30 - 60%; Activity [15]: Active; Activity [16]: Active
CCOC(=O)c1cnc2oc3ccc(O)cc3c2c1-c1ccccc1	7.1	> 20	14.3	> 20	> 20	> 20	> 20	Activity [17]: inactive
CCNc1cc(N[C@H]2CC[C@H](O)CC2)nc(Nc2ccc3c(ccn3Cc3ccccc3)c2)n1	–	–	–	–	> 10	> 10	> 10	Activity [18]: Active; Activity [19]: 30 - 60%
CC(C)c1cnc(NC(=O)Cc2ccccc2)s1	0.353	1.7	0.195	20.4	0.458	0.637	3.4	Activity [20]: <=30%; Activity [21]: Active; Activity [22]: Active; Activity [23]: Active; inhibition [24]: Active; Activity [25]: Active
CC(=O)c1cnc2oc3ccc(O)cc3c2c1-c1ccccc1	> 20	> 20	> 20	> 20	17.5	> 20	> 20	Activity [17]: inactive
COc1ccc(OC)c2c(=S)c3ccccc3[nH]c12	> 20	> 20	> 20	> 20	> 20	> 20	> 20	Activity [26]: Active
O=C1Nc2ccccc2/C1=C\c1c(Cl)[nH]c2ccccc12	13.2	6.7	9.4	> 20	5.8	16	> 20	Activity [27]: >=60%; IC50 [28]: > 20 µM; IC50 [29]: 15.6 µM
CN1CCN(c2ccc(Nc3ncc4cc(C#N)c(=O)n(C5CCCC5)c4n3)cc2)CC1 [NARAZACICLIB]	0.055	0.6	0.377	0.018	0.272	6	0.117	Activity [30]: Active; Activity [31]: >=60%
CN(C)C(=O)c1cc2cnc(Nc3ccc(N4CCNCC4)cn3)nc2n1C1CCCC1 [RIBOCICLIB]	–	–	–	–	> 20	> 20	–	–
O=C1Nc2cc(Br)ccc2/C1=C1/Nc2ccccc2/C1=N\O [6BIO]	–	–	–	–	–	3.5	0.45	Activity [19]: <=30%
